Measurements published in PMC8843100, “Development of newly synthesised quinazolinone-based CDK2 inhibitors with potent efficacy against melanoma” (Journal of Enzyme Inhibition and Medicinal Chemistry, 2022).

Columns and labels:
Test in all cases: NCI-60 single dose screen, sulforhodamine B
Assay type in all cases: cell-based, human
[1] = tested on: A549/ATCC; conditions: Non-small cell lung cancer A549/ATCC; single dose 10^−5 M
Protocol: (§1) In this research, all of the newly synthesised quinazolinones were subjected to in vitro anticancer screening by the National Cancer Institute (USA) against 60 different human cell lines including leukaemia, non-small cell lung cancer, colon cancer, CNS cancer, melanoma, ovarian cancer, renal cancer, prostate cancer, and breast cancer. The tested compounds were evaluated at a single dose (10^−5 M). […] Regarding the benzenesulfonamide counterparts, the introduction of an electron-withdrawing group on the benzenesulfonamide moiety increased the inhibitory activity on the glioblastoma cell line SNB-75 as depicted by the chloro derivative 5c (GI% = 63.09) which was higher than that of the unsubstituted derivative 5a (GI% = 40.06) and the methyl derivative 5b (GI% = 33.03).
(§2) 1. Cytotoxicity screening against a panel of 60 human tumor cell lines
(§3) All the compounds were selected for NCI-60 Human Tumor Cell Lines Screen by the Developmental Therapeutics Program (DTP) at the National Cancer Institute (NCI), Maryland, USA. The operation of this screen utilizes 60 different human tumor cell lines, representing leukemia, non-small-cell lung cancer, colon cancer, CNS cancer, melanoma, ovarian cancer, renal cancer, prostate cancer and breas t cancer.
(§4) The compounds were supplied as dry powder and a single concentration is tested in all 60 cell lines at a single dose of 10 µM solution in dimethyl sulfoxide (DMSO) using Sulforhodamine B assay. Briefly, cells are seeded in 96 well plates at an appropriate density and incubated for 1 day. After 1 day, some of the plates are processed to determine the density time zero. To the remaining plates, compounds are added at 10 µM concentration. Plates are incubated a further 2 days, then fixed and staine d with sulphorhodamine B. Growth inhibition is calculated relative to cells without drug treatment and the time zero control. The use of a time zero control allows the determination of cell kill as well as net growth inhibition. […]

[2] = tested on: MOLT-4; conditions: Leukaemia MOLT-4; single dose 10^−5 M
Protocol: as §1, §2, §3, §4

[3] = tested on: SR; conditions: Leukaemia SR; single dose 10^−5 M
Protocol: as §1, §2, §3, §4

[4] = tested on: KM12; conditions: Colon cancer KM12; single dose 10^−5 M
Protocol: as §1, §2, §3, §4

[5] = tested on: DU-145; conditions: Prostate cancer DU-145; single dose 10^−5 M
Protocol: as §1, §2, §3, §4

[6] = tested on: M14; conditions: Melanoma M14; single dose 10^−5 M
Protocol: as §1, §2, §3, §4

[7] = tested on: K-562; conditions: Leukaemia K-562; single dose 10^−5 M
Protocol: as §1, §2, §3, §4

[8] = tested on: HT29; conditions: Colon cancer HT29; single dose 10^−5 M
Protocol: as §1, §2, §3, §4

[9] = tested on: SNB-75; conditions: CNS cancer SNB-75; single dose 10^−5 M
Protocol: as §1, §2, §3, §4

[10] = tested on: NCI-H322M; conditions: Non-small cell lung cancer NCI-H322M; single dose 10^−5 M
Protocol: as §1, §2, §3, §4

[11] = tested on: SK-MEL-28; conditions: Melanoma SK-MEL-28; single dose 10^−5 M
Protocol: as §1, §2, §3, §4

[12] = tested on: MDA-MB-435; conditions: Melanoma MDA-MB-435; single dose 10^−5 M
Protocol: as §1, §2, §3, §4

[13] = tested on: OVCAR-8; conditions: Ovarian cancer OVCAR-8; single dose 10^−5 M
Protocol: as §1, §2, §3, §4

[14] = tested on: T-47D; conditions: Breast cancer T-47D; single dose 10^−5 M
Protocol: as §1, §2, §3, §4

[15] = tested on: SNB-19; conditions: CNS cancer SNB-19; single dose 10^−5 M
Protocol: as §1, §2, §3, §4

[16] = tested on: HCC-2998; conditions: Colon cancer HCC-2998; single dose 10^−5 M
Protocol: as §1, §2, §3, §4

[17] = tested on: LOX IMVI; conditions: Melanoma LOX IMVI; single dose 10^−5 M
Protocol: as §1, §2, §3, §4

[18] = tested on: NCI-H23; conditions: Non-small cell lung cancer NCI-H23; single dose 10^−5 M
Protocol: as §1, §2, §3, §4

[19] = tested on: SN12C; conditions: Renal cancer SN12C; single dose 10^−5 M
Protocol: as §1, §2, §3, §4

[20] = tested on: NCI-H522; conditions: Non-small cell lung cancer NCI-H522; single dose 10^−5 M
Protocol: as §1, §2, §3, §4

[21] = tested on: ACHN; conditions: Renal cancer ACHN; single dose 10^−5 M
Protocol: as §1, §2, §3, §4

[22] = tested on: MDA-MB-231/ATCC; conditions: Breast cancer MDA-MB-231/ATCC; single dose 10^−5 M
Protocol: as §1, §2, §3, §4

[23] = tested on: TK-10; conditions: Renal cancer TK-10; single dose 10^−5 M
Protocol: as §1, §2, §3, §4

[24] = tested on: U251; conditions: CNS cancer U251; single dose 10^−5 M
Protocol: as §1, §2, §3, §4

[25] = tested on: SF-295; conditions: CNS cancer SF-295; single dose 10^−5 M
Protocol: as §1, §2, §3, §4

[26] = tested on: OVCAR-5; conditions: Ovarian cancer OVCAR-5; single dose 10^−5 M
Protocol: as §1, §2, §3, §4

[27] = tested on: RPMI-8226; conditions: Leukaemia RPMI-8226; single dose 10^−5 M
Protocol: as §1, §2, §3, §4

[28] = tested on: HCT-116; conditions: Colon cancer HCT-116; single dose 10^−5 M
Protocol: as §1, §2, §3, §4

[29] = tested on: HCT-15; conditions: Colon cancer HCT-15; single dose 10^−5 M
Protocol: as §1, §2, §3, §4

[30] = tested on: PC-3; conditions: Prostate cancer PC-3; single dose 10^−5 M
Protocol: as §1, §2, §3, §4

[31] = tested on: SW-620; conditions: Colon cancer SW-620; single dose 10^−5 M
Protocol: as §1, §2, §3, §4

[32] = tested on: NCI-H226; conditions: Non-small cell lung cancer NCI-H226; single dose 10^−5 M
Protocol: as §1, §2, §3, §4

Structure (SMILES)	GI% at 10^−5 M [1]	GI% at 10^−5 M [2]	GI% at 10^−5 M [3]	GI% at 10^−5 M [4]	GI% at 10^−5 M [5]	GI% at 10^−5 M [6]	GI% at 10^−5 M [7]	GI% at 10^−5 M [8]	GI% at 10^−5 M [9]	GI% at 10^−5 M [10]	GI% at 10^−5 M [11]	GI% at 10^−5 M [12]	GI% at 10^−5 M [13]	GI% at 10^−5 M [14]	GI% at 10^−5 M [15]	GI% at 10^−5 M [16]	GI% at 10^−5 M [17]	GI% at 10^−5 M [18]	GI% at 10^−5 M [19]	GI% at 10^−5 M [20] [%]	further results
O=c1c2ccccc2nc(COc2ccccc2)n1N=CC=Cc1ccccc1 [Compound 6b, 2-(phenoxymethyl)-3-((3-phenylallylidene)amino)quinazolin-4(3H)-one]	– (– means GI < 10%)	– (– means GI < 10%)	14.34%	– (– means GI < 10%)	– (– means GI < 10%)	– (– means GI < 10%)	– (– means GI < 10%)	– (– means GI < 10%)	16.57%	– (– means GI < 10%)	– (– means GI < 10%)	– (– means GI < 10%)	– (– means GI < 10%)	– (– means GI < 10%)	17.13%	– (– means GI < 10%)	27.86%	– (– means GI < 10%)	12.39%	18.6	GI% at 10^−5 M [21]: – (– means GI < 10%); GI% at 10^−5 M [22]: – (– means GI < 10%); GI% at 10^−5 M [23]: – (– means GI < 10%); GI% at 10^−5 M [24]: – (– means GI < 10%); GI% at 10^−5 M [25]: – (– means GI < 10%); GI% at 10^−5 M [26]: – (– means GI < 10%); GI% at 10^−5 M [27]: 12.52%; GI% at 10^−5 M [28]: – (– means GI < 10%); GI% at 10^−5 M [29]: 23.15%; GI% at 10^−5 M [30]: 10.39%; GI% at 10^−5 M [31]: – (– means GI < 10%); GI% at 10^−5 M [32]: – (– means GI < 10%)
CN1CCN(CC(=O)Nn2c(COc3ccccc3)nc3ccccc3c2=O)CC1 [Compound 8a, 2–(4-methylpiperazin-1-yl)-N-(4-oxo-2-(phenoxymethyl)quinazolin-3(4H)-yl)acetamide]	– (– means GI < 10%)	11.86%	69.55%	55.03%	– (– means GI < 10%)	21.06%	67.8%	26.89%	27.37%	– (– means GI < 10%)	– (– means GI < 10%)	94.15%	– (– means GI < 10%)	32.2%	13.65%	10.06%	14.73%	– (– means GI < 10%)	– (– means GI < 10%)	24.6	GI% at 10^−5 M [21]: – (– means GI < 10%); GI% at 10^−5 M [22]: 21.65%; GI% at 10^−5 M [23]: – (– means GI < 10%); GI% at 10^−5 M [24]: 18.55%; GI% at 10^−5 M [25]: – (– means GI < 10%); GI% at 10^−5 M [26]: – (– means GI < 10%); GI% at 10^−5 M [27]: 23.17%; GI% at 10^−5 M [28]: 18.15%; GI% at 10^−5 M [29]: 44.04%; GI% at 10^−5 M [30]: – (– means GI < 10%); GI% at 10^−5 M [31]: 42.80%; GI% at 10^−5 M [32]: 15.39%
O=C(CN1CCN(c2ccccc2)CC1)Nn1c(COc2ccccc2)nc2ccccc2c1=O [Compound 8b, N-(4-oxo-2-(phenoxymethyl)quinazolin-3(4H)-yl)-2–(4-phenylpiperazin-1-yl)acetamid]	– (– means GI < 10%)	– (– means GI < 10%)	– (– means GI < 10%)	– (– means GI < 10%)	– (– means GI < 10%)	– (– means GI < 10%)	– (– means GI < 10%)	– (– means GI < 10%)	– (– means GI < 10%)	– (– means GI < 10%)	– (– means GI < 10%)	– (– means GI < 10%)	– (– means GI < 10%)	– (– means GI < 10%)	– (– means GI < 10%)	– (– means GI < 10%)	– (– means GI < 10%)	10.01%	– (– means GI < 10%)	11.45	GI% at 10^−5 M [21]: – (– means GI < 10%); GI% at 10^−5 M [22]: 10.38%; GI% at 10^−5 M [23]: – (– means GI < 10%); GI% at 10^−5 M [24]: – (– means GI < 10%); GI% at 10^−5 M [25]: – (– means GI < 10%); GI% at 10^−5 M [26]: – (– means GI < 10%); GI% at 10^−5 M [27]: – (– means GI < 10%); GI% at 10^−5 M [28]: – (– means GI < 10%); GI% at 10^−5 M [29]: – (– means GI < 10%); GI% at 10^−5 M [30]: – (– means GI < 10%); GI% at 10^−5 M [31]: – (– means GI < 10%); GI% at 10^−5 M [32]: – (– means GI < 10%)
